Measurements taken from PMC7026080, “Phenotypic high-throughput screening platform identifies novel chemotypes for necroptosis inhibition” (Cell Death Discovery, 2020).
Like-named read-outs stand apart in the source and are kept apart here.

Tests used:
L929 cells = assay: Necroptosis inhibition in L929 cells + mTNF-α, 8 h, AK release; assay type: cell-based, murine; conditions: for EC50: Mus musculus, L929
Experimental: A total of 251,328 small-molecule compounds were screened in L929 cells incubated with mTNF-α alone or together with test compounds at 31.7 μM for 8 h. Intraplate controls for data normalization consisted of untreated cell wells. L929 cells co-incubated with mTNF-α and SN-2668/Nec-1 served as positive controls (Fig. S2A). […] In HTS step one (primary screening), valid data was obtained for 247,738 compounds, 3353 of which were within the established hit selection criteria, corresponding to a 1.4% hit rate for the full library (Fig. 1a).
The second screening step aimed to determine the EC50 of selected compounds. L929 and Jurkat FADD^-/- cells were co-incubated with TNF-α and test compounds at 10-point concentration range (0.004–100 μM) for 8 h. Compound-mediated inhibition of necroptosis was assessed through AK release and the EC50 calculated. Jurkat cells were used to validate results in human cells. […] In HTS step two, 4374 compounds (3353 hits from HTS step one plus 1021 near neighbours) were evaluated for potency by dose-response curves. From those, 1,438 hit compounds passed the selection criteria on both cell lines, corresponding to a […] hit rate.
L929 cells were co-incubated for 8 h with mTNF-α and test compounds at 31.7 μM after which AK release was measured. […] Hit compounds were then evaluated for apoptosis modulation. Further details are provided as Supplementary Information.
Cell treatments and viability assays. Cells were seeded in 384- or 96-well plates at 1000 or 8000 cells/well (in 12.5 μL or 100 μL final volume), respectively, using a Multidrop^TM Combi Reagent Dispenser (ThermoFisher Scientific). For inducing necroptosis, L929 and Jurkat FADD^-/- cells were incubated with 10 ng/mL mTNF-α and hTNF-α respectively; BV2 cells with 25 µM Z-VAD-FMK, and HT29 cells with 20 ng/mL hTNF-α, 250 nM Smac mimetic BV6 and 10 μM Z-VAD-FMK. Cells were co-incubated in the presence of test compounds at target concentrations for 8 or 24 h. Nec-1 at 29.2 μM was used as positive control. For apoptosis assays, Jurkat E6.1 cells were co-incubated with 0.5 μg/mL CHX and test compounds at target concentrations for 8 h. In cytotoxicity assays, HepG2 and L929 cells were seeded in 96-well plates at 5000 cells/well, in 100 μL final volume. Twenty-four hours after seeding, cells were incubated with test compounds at 50 and 100 μM for additional 24 h.
Adenylate kinase (AK) and lactate dehydrogenase (LDH) release from damaged cells were measured using the Toxilight BioAssay Kit (Lonza, Basel, Switzerland) and the Cytotoxicity Detection Kit (Roche Diagnostics GmbH, Mannheim, Germany), respectively. Adenosine triphosphate (ATP) metabolism was evaluated using CellTiter-Glo^TM Luminescent Cell Viability Assay (Promega, Madison, WI, USA). Apoptosis was determined by the measurement of caspase-3/-7 activity using the Caspase-Glo® 3/7 Assay (Promega) according to the manufacturer’s instructions. Cellular metabolic activity was measured using CellTiter 96® Aqueous Non-Radioactive Cell Proliferation (MTS) Assay (Promega). Luminescence signal was recorded using a GloMax®-MultiDetection System (Promega) and absorbance with a Model 680 microplate reader (Bio-Rad Laboratories Inc, Hercules, CA, USA).
Primary high-throughput screen. Test compounds were arrayed in 384-well white microtiter plates and screened for their potential as necroptosis inhibitors at 32 μM target concentration. Eight hours after co-incubation of L929 cells with mTNF-α and test compounds, AK release was evaluated. […]

TNF-α-induced SIRS = assay: TNF-α-induced systemic inflammatory response syndrome (SIRS) in mice; assay type: in vivo, mouse; conditions: 5 mg/kg i.v. 15 min before mTNF-α 0.38 mg/kg; C57BL/6J mice
Excerpt: To confirm that the screening strategy leads to hits functionally active in vivo, we tested one of the hits for its ability to protect against RIPK-driven inflammation in TNF-α-induced systemic inflammatory response syndrome (SIRS). This mouse model of sterile sepsis[32] is dependent on RIPK1 and RIPK3 kinase activity and independent of apoptosis and inflammasome activity.
Representative blots and quantification of p-RIPK3/RIPK3 and p-MLKL/MLKL ratios in fold-change from control. Blots were normalized to endogenous β-actin.
Nec-1 was positive control for TNF-induced SIRS protection. Body temperature and mortality were monitored up to 96 h. Further details are provided as Supplementary Information.
Animal studies, injections and monitoring. Male C57BL/6J mice with 18-26 g (Charles River Laboratories International, Inc., Wilmington, MA, USA) were used at the age of 8-14 weeks. Five to seven animals were included in each experimental group. All animal experiments were carried out with the permission of local animal ethical committee in accordance with the EU Directive (2010/63/EU), Portuguese laws (DL113/2013, 2880/2015, 260/2016) and all relevant legislations. Animals received humane care in a temperature-controlled environment with a 12 h light-dark cycle and ad libitum access to pelleted chow and water, complying with the Institute’s guidelines, and as outlined in the “Guide for the Care and Use of Laboratory Animals” prepared by the National Academy of Sciences and published by the National Institutes of Health (NIH publication 86-23 revised 1985). […] Nec-1 was diluted as follows (v/v): 48% PBS 1X, 17% DMSO and 35% PEG 400. […] All injections were administered intravenously (i.v.) in 100 µL volume each. Body temperature was recorded on mice pre-shaven back using a non-contact infrared thermometer suitable for animal use (BIO-IRB153; BioSeb, Vitrolles, France). Body temperature and mortality were monitored up to 96 h. Animals were euthanized by inhalative induction of narcosis with isoflurane at the end of the experiment, or at humane endpoints according to the Clinical Severity Score ^59.

[1] = 8 h, 10 ng/mL mTNF-α, AK release, screening step 1 as printed, read-out: EC50 L929 + TNF-α (in vitro)
[2] = read-out: L929 + TNF-α (in vitro) pEC50 (converted)

| Compound | EC50 (L929 cells; [1]) [µM] | EC50 (L929 cells; [2]) [µM] | Survival in TNF-α-induced SIRS (TNF-α-induced SIRS) | TNF-α shock-associated hypothermia (body temperature) (TNF-α-induced SIRS) | Membrane integrity (L929 cells; DMSO = 0, no addition = −100, L929, 10 ng/mL mTNF-α, 8 h, Nec-1 at 29.2 μM) |
| --- | --- | --- | --- | --- | --- |
| O=C(c1cnn(Cc2ccccc2)c1)N1CCOc2ccccc2C1 [SN-6109] | 6.3 | 6.31 | ~50% | gradually recovered their basal temperature in 48 h post-injection |  |
| CN1C(=O)C(Cc2c[nH]c3ccccc23)NC1=S (stereo not drawn) [Nec-1, necrostatin-1] | 1.25 | 1.26 | all survived | fully protected from hypothermia | > −100 percentage of control |
